# Assay results published in ChEMBL document CHEMBL1128373, “A-ring ortho-disubstituted aporphine derivatives as potential agonists or antagonists at serotonergic 5-HT1A receptors” (J Med Chem, 1995).
# Activity calls are given as the source filed them. No cut-off for these calls is given here.
# How the values were obtained:
# Assay type in all cases: tissue-based
# Details in all cases: Cavia porcellus, target entry is the homologue from another species
# [1] = target: T1, 5-hydroxytryptamine receptor 1A (Homo sapiens) (UniProt P08908); test: Ability to antagonize electrical induced contractile responses in Guinea pig ileum for 5-HT1A receptor.
# T1 sequence (whole entry): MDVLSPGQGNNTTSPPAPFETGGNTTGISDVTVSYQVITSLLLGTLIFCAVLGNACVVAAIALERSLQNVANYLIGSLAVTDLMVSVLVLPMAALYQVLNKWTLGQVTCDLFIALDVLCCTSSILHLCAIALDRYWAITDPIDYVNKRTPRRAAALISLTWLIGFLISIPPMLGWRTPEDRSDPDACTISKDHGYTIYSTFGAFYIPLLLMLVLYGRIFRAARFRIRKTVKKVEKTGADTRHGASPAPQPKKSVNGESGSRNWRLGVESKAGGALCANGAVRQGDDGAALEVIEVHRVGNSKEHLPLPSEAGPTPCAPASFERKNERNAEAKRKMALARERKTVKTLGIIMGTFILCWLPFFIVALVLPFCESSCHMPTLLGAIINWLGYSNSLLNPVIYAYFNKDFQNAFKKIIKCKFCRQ
# [2] = target: T1, 5-hydroxytryptamine receptor 1A (Homo sapiens); test: Ability to antagonize Acetylcholine induced contractile responses in Guinea pig ileum for 5-HT1A receptor.
# [3] = target: T1, 5-hydroxytryptamine receptor 1A (Homo sapiens); test: Ability to antagonize Acetylcholine induced contractile responses in Guinea pig ileum for 5-HT1A receptor. Inactive at dose level of 1.0 uM
# [4] = target: T1, 5-hydroxytryptamine receptor 1A (Homo sapiens); test: Ability to antagonize electrical induced contractile responses in Guinea pig ileum for 5-HT1A receptor; Inactive at dose level of 1.0 uM
# [5] = target: T1, 5-hydroxytryptamine receptor 1A (Homo sapiens); test: Ability to antagonize electrical induced contractile responses in Guinea pig ileum for 5-HT1A receptor. Inactive at dose level of 1.0 uM
Compound,ED50 [1] [µM],ED50 [2] [µM],ED50 [3],ED50 [4],ED50 [5]
Cc1ccc2c(c1O)-c1cccc3c1[C@@H](C2)N(C)CC3,0.05,,,,
"COc1cc2c(cc1C)-c1cccc3c1C(C2)N(C)CC3 (single isomer, unassigned; (+))",5.4,24.9,,,
"Cc1cc2c(cc1O)-c1cccc3c1C(C2)N(C)CC3 (single isomer, unassigned; (+))",,,inactive,inactive,
"Cc1cc2c(cc1O)CC1c3c(cccc3-2)CCN1C (single isomer, unassigned; (+))",,,inactive,,inactive
"COc1cc2c(cc1C)-c1cccc3c1C(C2)N(C)CC3 (single isomer, unassigned; (-))",5,2.7,,,
"Cc1cc2c(cc1O)-c1cccc3c1C(C2)N(C)CC3 (single isomer, unassigned; (-))",,,inactive,,inactive
"Cc1cc2c(cc1O)CC1c3c(cccc3-2)CCN1C (single isomer, unassigned; (-))",,,inactive,,inactive
COc1cc2c(cc1C)CC1c3c(cccc3-2)CCN1C (stereo in doubt; (+)-9),5.9,36.6,,,
COc1cc2c(cc1C)CC1c3c(cccc3-2)CCN1C (stereo in doubt; (-)-9),2.6,11.4,,,
